Measured values as given in patent US12570659B2, “Bicyclic heteroaryl compounds useful as IRAK4 inhibitors” (BRISTOL-MYERS SQUIBB COMPANY, priority 2019, dated 2026).

Experiments:
IRAK4 = IRAK4 (Homo sapiens (Human), UniProt Q9NWZ3); experiment: IRAK4 Inhibition Assay; assay type: biochemical; details: ATP 500 μM; IRAK4 0.6 nM; 60 min room temperature
Outline: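 Phosphorylated and unphosphorylated fluorescent substrate were resolved by microfluidic electrophoresis after termination with 35 mM EDTA. The room-temperature kinase reaction lasted 60 min after IRAK4, substrates and test compound were combined; vehicle-only defined 0% and no-enzyme 100% inhibition.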

JAK3 kinase = JAK3 kinase (Homo sapiens (Human), UniProt P52333); experiment: JAK3 Homogeneous Time Resolved Fluorescence (HTRF) Assay; assay type: binding; details: for IC50: competition binding with fluorescein-labeled ATP competitive probe; for Ratio of JAK3 IC50 to IRAK4 IC50: selectivity for IRAK4 over JAK3
Chain of JAK3 kinase (P52333 whole entry): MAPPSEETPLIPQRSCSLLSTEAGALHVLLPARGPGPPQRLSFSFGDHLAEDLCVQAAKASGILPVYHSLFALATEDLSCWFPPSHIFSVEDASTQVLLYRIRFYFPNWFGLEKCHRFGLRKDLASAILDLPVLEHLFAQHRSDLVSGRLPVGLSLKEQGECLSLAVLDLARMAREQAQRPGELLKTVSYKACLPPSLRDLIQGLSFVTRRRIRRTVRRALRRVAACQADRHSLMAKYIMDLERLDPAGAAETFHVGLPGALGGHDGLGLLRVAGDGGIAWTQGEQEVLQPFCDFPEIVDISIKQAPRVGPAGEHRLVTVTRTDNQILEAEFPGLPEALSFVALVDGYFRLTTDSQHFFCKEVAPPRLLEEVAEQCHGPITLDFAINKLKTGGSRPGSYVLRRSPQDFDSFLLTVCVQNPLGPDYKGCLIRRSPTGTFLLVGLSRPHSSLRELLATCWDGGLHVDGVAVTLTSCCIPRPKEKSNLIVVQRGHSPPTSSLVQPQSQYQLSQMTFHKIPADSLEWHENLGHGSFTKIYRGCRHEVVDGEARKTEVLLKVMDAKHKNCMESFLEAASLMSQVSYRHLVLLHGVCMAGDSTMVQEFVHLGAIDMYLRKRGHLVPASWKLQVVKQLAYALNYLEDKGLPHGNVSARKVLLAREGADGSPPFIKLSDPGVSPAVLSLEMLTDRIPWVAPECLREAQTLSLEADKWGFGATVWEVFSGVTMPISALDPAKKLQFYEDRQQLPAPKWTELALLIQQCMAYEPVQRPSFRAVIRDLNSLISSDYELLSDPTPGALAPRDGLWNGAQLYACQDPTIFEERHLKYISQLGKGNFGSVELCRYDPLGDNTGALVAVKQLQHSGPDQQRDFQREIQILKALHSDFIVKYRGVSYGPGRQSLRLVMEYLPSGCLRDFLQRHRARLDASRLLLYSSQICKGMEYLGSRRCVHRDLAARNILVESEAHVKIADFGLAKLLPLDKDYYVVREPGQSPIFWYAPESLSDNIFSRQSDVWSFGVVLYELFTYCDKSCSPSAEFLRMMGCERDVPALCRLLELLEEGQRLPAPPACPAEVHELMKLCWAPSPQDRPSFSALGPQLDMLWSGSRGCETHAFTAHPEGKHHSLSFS
Outline: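 IC50 reflects displacement of a fluorescein-labeled ATP-site probe (at its Kd) from 1 nM tagged JAK3, detected via 0.2 nM Tb anti-His or anti-GST antibody. One-hour incubation; 495 and 520 nm emission ratios, background-subtracted, normalized to maximum signal; 11-point percent inhibition, 4-parameter logistic.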

Chain of IRAK4 (Q9NWZ3 whole entry, species assumed): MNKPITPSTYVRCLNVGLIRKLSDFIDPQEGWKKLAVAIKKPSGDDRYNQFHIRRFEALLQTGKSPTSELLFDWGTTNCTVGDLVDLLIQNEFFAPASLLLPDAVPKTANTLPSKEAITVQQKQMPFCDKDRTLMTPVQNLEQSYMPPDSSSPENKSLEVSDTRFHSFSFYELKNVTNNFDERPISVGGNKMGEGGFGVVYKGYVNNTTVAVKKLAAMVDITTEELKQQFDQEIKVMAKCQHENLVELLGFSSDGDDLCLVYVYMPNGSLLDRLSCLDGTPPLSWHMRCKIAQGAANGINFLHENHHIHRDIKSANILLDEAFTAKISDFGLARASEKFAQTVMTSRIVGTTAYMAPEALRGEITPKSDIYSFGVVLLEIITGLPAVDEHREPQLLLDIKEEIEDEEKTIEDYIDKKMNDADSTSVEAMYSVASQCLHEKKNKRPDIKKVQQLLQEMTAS

CC(C)(O)[C@H](F)CNC(=O)c1cnc2cc(-c3cccnc3)nn2c1N[C@H]1CCN(c2cnc(F)nc2)C1 [Example 138, N—((R)-2-fluoro-3-hydroxy-3-methylbutyl)-7-(((S)-1-(2-fluoropyrimidin-5-yl)pyrrolidin-3-yl)amino)-2-(pyridin-3-yl) pyrazolo[1,5-a]pyrimidine-6-carboxamide]
IC50 (IRAK4): 640 nM | IC50 (JAK3 kinase): > 10000 nM | Ratio of JAK3 IC50 to IRAK4 IC50 (JAK3 kinase): >16

CC(C)(O)[C@H](F)CNC(=O)c1cnc2cc(-c3cccnc3)nn2c1N[C@H]1CCC[C@H]1O [Example 139, N—((R)-2-fluoro-3-hydroxy-3-methylbutyl)-7-(((1S,2R)-2-hydroxycyclopentyl)amino)-2-(pyridin-3-yl)pyrazolo[1,5-a] pyrimidine-6-carboxamide]
IC50 (IRAK4): 250 nM | IC50 (JAK3 kinase): > 50000 nM | Ratio of JAK3 IC50 to IRAK4 IC50 (JAK3 kinase): >200

CC(C)Nc1c(C(=O)NC[C@@H](F)C(C)(C)O)cnc2cc(-c3cccc(F)c3)nn12 [Example 140, (R)—N-(2-fluoro-3-hydroxy-3-methylbutyl)-2-(3-fluorophenyl)-7-(isopropylamino)pyrazolo[1,5-a]pyrimidine-6-carboxamide]
IC50 (IRAK4): 82 nM | IC50 (JAK3 kinase): > 50000 nM | Ratio of JAK3 IC50 to IRAK4 IC50 (JAK3 kinase): >610

CC(C)Nc1c(C(=O)NC[C@@H](F)C(C)(C)O)cnc2cc(-c3ccc(C#N)cc3)nn12 [Example 141, (R)-2-(4-cyanophenyl)-N-(2-fluoro-3-hydroxy-3-methylbutyl)-7-(isopropylamino)pyrazolo[1,5-a]pyrimidine-6-carboxamide]
IC50 (IRAK4): 11 nM | IC50 (JAK3 kinase): > 50000 nM | Ratio of JAK3 IC50 to IRAK4 IC50 (JAK3 kinase): >4545

COc1ccc(-c2cc3ncc(C(=O)NC[C@@H](F)C(C)(C)O)c(NC(C)C)n3n2)cn1 [Example 142, (R)—N-(2-fluoro-3-hydroxy-3-methylbutyl)-7-(isopropylamino)-2-(6-methoxypyridin-3-yl)pyrazolo[1,5-a]pyrimidine-6-carboxamide]
IC50 (IRAK4): 140 nM | IC50 (JAK3 kinase): > 10000 nM | Ratio of JAK3 IC50 to IRAK4 IC50 (JAK3 kinase): >71

COc1ncccc1-c1cc2ncc(C(=O)NC[C@@H](F)C(C)(C)O)c(NC(C)C)n2n1 [Example 143, (R)—N-(2-fluoro-3-hydroxy-3-methylbutyl)-7-(isopropylamino)-2-(2-methoxypyridin-3-yl)pyrazolo[1,5-a]pyrimidine-6-carboxamide]
IC50 (IRAK4): 630 nM | IC50 (JAK3 kinase): > 10000 nM | Ratio of JAK3 IC50 to IRAK4 IC50 (JAK3 kinase): >16

COc1cccc(-c2cc3ncc(C(=O)NC[C@@H](F)C(C)(C)O)c(NC(C)C)n3n2)n1 [Example 144, (R)—N-(2-fluoro-3-hydroxy-3-methylbutyl)-7-(isopropylamino)-2-(6-methoxypyridin-2-yl)pyrazolo[1,5-a] pyrimidine-6-carboxamide]
IC50 (IRAK4): 1400 nM | IC50 (JAK3 kinase): > 50000 nM | Ratio of JAK3 IC50 to IRAK4 IC50 (JAK3 kinase): >36

CC(C)Nc1c(C(=O)NC[C@@H](F)C(C)(C)O)cnc2cc(-c3cccc(=O)[nH]3)nn12 [Example 145, (R)—N-(2-fluoro-3-hydroxy-3-methylbutyl)-7-(isopropylamino)-2-(6-oxo-1,6-dihydropyridin-2-yl) pyrazolo[1,5-a]pyrimidine-6-carboxamide]
IC50 (IRAK4): 300 nM | IC50 (JAK3 kinase): > 50000 nM | Ratio of JAK3 IC50 to IRAK4 IC50 (JAK3 kinase): >167

Cc1cncc(-c2cc3ncc(C(=O)NC[C@@H](F)C(C)(C)O)c(NC(C)C)n3n2)c1 [Example 146, (R)—N-(2-fluoro-3-hydroxy-3-methylbutyl)-7-(isopropylamino)-2-(5-methylpyridin-3-yl)pyrazolo[1,5-a]pyrimidine-6-carboxamide]
IC50 (IRAK4): 480 nM | IC50 (JAK3 kinase): > 50000 nM | Ratio of JAK3 IC50 to IRAK4 IC50 (JAK3 kinase): >104

CC(C)Nc1c(C(=O)NC[C@@H](F)C(C)(C)O)cnc2cc(C3CC3)nn12 [Example 147, (R)-2-cyclopropyl-N-(2-fluoro-3-hydroxy-3-methylbutyl)-7-(isopropylamino)pyrazolo[1,5-a]pyrimidine-6-carboxamide]
IC50 (IRAK4): 420 nM | IC50 (JAK3 kinase): > 50000 nM | Ratio of JAK3 IC50 to IRAK4 IC50 (JAK3 kinase): >119

COc1cc(-c2cc3ncc(C(=O)NC[C@@H](F)C(C)(C)O)c(NC(C)C)n3n2)ccn1 [Example 148, (R)—N-(2-fluoro-3-hydroxy-3-methylbutyl)-7-(isopropylamino)-2-(2-methoxypyridin-4-yl)pyrazolo[1,5-a]pyrimidine-6-carboxamide]
IC50 (IRAK4): 61 nM | IC50 (JAK3 kinase): > 10000 nM | Ratio of JAK3 IC50 to IRAK4 IC50 (JAK3 kinase): >164

COC(=O)c1cncc(-c2cc3ncc(C(=O)NC[C@@H](F)C(C)(C)O)c(NC(C)C)n3n2)c1 [Example 149, methyl (R)-5-(6-((2-fluoro-3-hydroxy-3-methylbutyl)carbamoyl)-7-(isopropylamino)pyrazolo[1,5-a]pyrimidin-2-yl)nicotinate]
IC50 (IRAK4): 210 nM | IC50 (JAK3 kinase): > 50000 nM | Ratio of JAK3 IC50 to IRAK4 IC50 (JAK3 kinase): >238

CC(C)Nc1c(C(=O)NC[C@@H](F)C(C)(C)O)cnc2cc(-c3cncc(C(C)(C)O)c3)nn12 [Example 150, (R)—N-(2-fluoro-3-hydroxy-3-methylbutyl)-2-(5-(2-hydroxypropan-2-yl)pyridin-3-yl)-7-(isopropylamino)pyrazolo[1,5-a]pyrimidine-6-carboxamide]
IC50 (IRAK4): 560 nM | IC50 (JAK3 kinase): > 10000 nM | Ratio of JAK3 IC50 to IRAK4 IC50 (JAK3 kinase): >18

CC(C)Nc1c(C(=O)NC[C@@H](F)C(C)(C)O)cnc2cc(-n3ccccc3=O)nn12 [Example 151, (R)—N-(2-fluoro-3-hydroxy-3-methylbutyl)-7-(isopropylamino)-2-(2-oxopyridin-1(2H)-yl)pyrazolo[1,5-a]pyrimidine-6-carboxamide]
IC50 (IRAK4): 580 nM | IC50 (JAK3 kinase): > 50000 nM | Ratio of JAK3 IC50 to IRAK4 IC50 (JAK3 kinase): >86

CC(C)Nc1c(C(=O)NC[C@@H](F)C(C)(C)O)cnc2cc(-c3ccccn3)nn12 [Example 152, (R)—N-(2-fluoro-3-hydroxy-3-methylbutyl)-7-(isopropylamino)-2-(pyridin-2-yl)pyrazolo[1,5-a]pyrimidine-6-carboxamide]
IC50 (IRAK4): 160 nM | IC50 (JAK3 kinase): > 10000 nM | Ratio of JAK3 IC50 to IRAK4 IC50 (JAK3 kinase): >63

CC(C)Nc1c(C(=O)NC[C@@H](F)C(C)(C)O)cnc2cc(-c3cccc(Cl)n3)nn12 [Example 153, (R)-2-(6-chloropyridin-2-yl)-N-(2-fluoro-3-hydroxy-3-methylbutyl)-7-(isopropylamino) pyrazolo[1,5-a]pyrimidine-6-carboxamide]
IC50 (IRAK4): 1230 nM | IC50 (JAK3 kinase): > 10000 nM | Ratio of JAK3 IC50 to IRAK4 IC50 (JAK3 kinase): >8

CC(C)Nc1c(C(=O)NC[C@@H](F)C(C)(C)O)cnc2cc(-c3cc[nH]c(=O)c3)nn12 [Example 154, (R)—N-(2-fluoro-3-hydroxy-3-methylbutyl)-7-(isopropylamino)-2-(2-oxo-1,2-dihydropyridin-4-yl)pyrazolo[1,5-a]pyrimidine-6-carboxamide]
IC50 (IRAK4): 93 nM | IC50 (JAK3 kinase): > 50000 nM | Ratio of JAK3 IC50 to IRAK4 IC50 (JAK3 kinase): >538

CC(C)(C)CNc1c(C(=O)NC[C@@H](F)C(C)(C)O)cnc2cc(-c3cccnc3)nn12 [Example 155, (R)—N-(2-fluoro-3-hydroxy-3-methylbutyl)-7-(neopentylamino)-2-(pyridin-3-yl)pyrazolo[1,5-a]pyrimidine-6-carboxamide]
IC50 (IRAK4): 90 nM | IC50 (JAK3 kinase): > 50000 nM | Ratio of JAK3 IC50 to IRAK4 IC50 (JAK3 kinase): >556

CNC(=O)c1cncc(-c2cc3ncc(C(=O)NC[C@@H](F)C(C)(C)O)c(NC(C)C)n3n2)c1 [Example 156, (R)—N-(2-fluoro-3-hydroxy-3-methylbutyl)-7-(isopropylamino)-2-(5-(methylcarbamoyl)pyridin-3-yl)pyrazolo[1,5-a]pyrimidine-6-carboxamide]
IC50 (IRAK4): 910 nM | IC50 (JAK3 kinase): > 10000 nM | Ratio of JAK3 IC50 to IRAK4 IC50 (JAK3 kinase): >11

CC(C)Nc1c(C(=O)NC[C@@H](F)C(C)(C)O)cnc2cc(-c3cccc(N)c3)nn12 [Example 157, (R)-2-(3-aminophenyl)-N-(2-fluoro-3-hydroxy-3-methylbutyl)-7-(isopropylamino) pyrazolo[1,5-a]pyrimidine-6-carboxamide]
IC50 (IRAK4): 31 nM | IC50 (JAK3 kinase): > 50000 nM | Ratio of JAK3 IC50 to IRAK4 IC50 (JAK3 kinase): >1613

CC(C)(O)[C@H](F)CNC(=O)c1cnc2cc(-c3cccnc3)nn2c1N[C@H]1CC[C@H](C(C)(C)O)CC1 [Example 159, N—((R)-2-fluoro-3-hydroxy-3-methylbutyl)-7-(((1r,4R)-4-(2-hydroxypropan-2-yl)cyclohexyl)amino)-2-(pyridin-3-yl)pyrazolo[1,5-a]pyrimidine-6-carboxamide]
IC50 (IRAK4): 53 nM | IC50 (JAK3 kinase): > 50000 nM | Ratio of JAK3 IC50 to IRAK4 IC50 (JAK3 kinase): >943

CC(C)(O)[C@H](F)CNC(=O)c1cnc2cc(-c3ccncc3F)nn2c1NCCC1CCCCO1 (stereo partly drawn) [Example 160, N—((R)-2-fluoro-3-hydroxy-3-methylbutyl)-2-(3-fluoropyridin-4-yl)-7-((2-(tetrahydro-2H-pyran-2-yl)ethyl)amino)pyrazolo[1,5-a]pyrimidine-6-carboxamide]
IC50 (IRAK4): 45 nM | IC50 (JAK3 kinase): > 50000 nM | Ratio of JAK3 IC50 to IRAK4 IC50 (JAK3 kinase): >1111

CC(C)Nc1c(C(=O)NCCNS(C)(=O)=O)cnc2cc(-c3ccncc3F)nn12 [Example 161, 2-(3-fluoropyridin-4-yl)-7-(isopropylamino)-N-(2-(methylsulfonamido)ethyl) pyrazolo[1,5-a]pyrimidine-6-carboxamide]
IC50 (IRAK4): 160 nM | IC50 (JAK3 kinase): > 10000 nM | Ratio of JAK3 IC50 to IRAK4 IC50 (JAK3 kinase): >63
